Laboratory results published in patent EP4810052A2, “HCRHR2 SELECTIVE POLYPEPTIDES” (Gubra A/S, priority 2023, dated 2026).
Like-named read-outs stand apart in the source and are kept apart here. Starred links: 1 amine or outer side, 2 acyl side, 3 side chain; linkers in the order of their positions; H or OH if unused. Non-standard residues stand in square brackets, D forms with d. Residues, ends and D or L forms follow the SMILES beside them. Groups on a side chain read outwards from the residue. *: point of attachment. C20 diacid = O=C(O)CCCCCCCCCCCCCCCCCCC(=O)*; γGlu = O=C(O)[C@H](CCC(=O)[*:2])N[*:1]; NMeI = CC[C@H](C)[C@H](NC)C(=O)O; Nle = CCCC[C@H](N)C(=O)O; AEEA = NCCOCCOCC(=O)O; Aib = CC(C)(N)C(=O)O

Legend:
[1] = biological target: T1, hCRHR1 (Homo sapiens, UniProt P34998); assay: HTRF cAMP assay, determination of hCRHR1 potency (peptide libraries 5 conc., purified peptides 11 conc.); format: cell-based
T1 sequence (P34998 24-415): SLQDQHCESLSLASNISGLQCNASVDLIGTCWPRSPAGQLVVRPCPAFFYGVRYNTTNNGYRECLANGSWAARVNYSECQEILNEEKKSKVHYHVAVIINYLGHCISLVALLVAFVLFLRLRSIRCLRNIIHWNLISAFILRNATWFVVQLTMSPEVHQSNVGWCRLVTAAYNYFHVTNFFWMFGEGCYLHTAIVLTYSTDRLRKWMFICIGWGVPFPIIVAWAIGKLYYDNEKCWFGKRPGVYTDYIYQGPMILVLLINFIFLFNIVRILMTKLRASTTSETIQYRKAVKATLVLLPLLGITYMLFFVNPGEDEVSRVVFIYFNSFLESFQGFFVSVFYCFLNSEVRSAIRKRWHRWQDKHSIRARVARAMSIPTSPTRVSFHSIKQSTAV
How it was run: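 CHO-K1 cells stably expressing human CRHR1, thawed from frozen stocks just before use, were stimulated in suspension with agonist peptides. cAMP was measured by HTRF competitive immunoassay (cryptate anti-cAMP antibody vs d2-cAMP).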

[2] = Dynamic Light Scattering (DLS) of peptide oligomerisation/particle formation; format: physicochemical; details: average of three replica
Method: Samples were prepared by dissolving 800 nmol of each peptide in 400 µl 50 mM phosphate pH 8.0 to a concentration of 2000 µM (ca 10 mg/ml). After fully dissolution for 2 hours on a rocking table, samples were adjusted to pH 7.5 and filtrated through a 0.2 µm Whatman Anotop filter. Comparators were commercially available liraglutide drug product (Victoza®, Novo Nordisk) pH 8.2, and an aliquot of this drug product adjusted to pH 6.7. These samples were filtrated through a 0.02 µm Whatman Anotop filter.
Samples were pipetted as triplicate of 30 µl to an Aurora 384 well microtiter plate, which was centrifuged for 2 minutes at 2200 rpm and then sealed with a Thermo sealing tape 235307. DLS measurements were done in a Wyatt DynaPro platereader III with the following parameters:
The microtiter plate was incubated in a Grant-bio Thermo Shaker PHMP-4 at 40°C with 700 rpm continuous shaking before subsequent DLS measurements. Data analysis was done using Wyatt Dynamics software ver. 7.10.1.21.
Samples were prepared and measured as described in procedure. The hydrodynamic radii (Rh) and associated polydispersity (PD) resulting from cumulant analysis (assuming one species) are shown in the Table 8 as averages of three replica. T0 indicates the measurement at time zero after sample preparation; T5 indicates the measurements of five days of incubation as described above.

[3] = PK in mice; format: in vivo; parameters: T½ / MRT: unit: h; details: for half-life: read-out: T½ (converted)
Method: Lean male NMRI/RjHan mice were obtained from JanVier (JanVier Labs, France) at 6 weeks of age. The animals were single housed under a 12/12 h dark-light cycle, light off at 3 PM. Room temperature was controlled to 22°C ± 1°C, with 60 % ± 20% humidity. Animals had ad libitum access to regular rodent chow (Altromin 1324, Brogaarden, Denmark) and tap water.
After 2 weeks of acclimatization, the animals were randomized into treatment groups (n=9 per group) based on body weight. Animals were dosed IV with one peptide and SC with another peptide (15 or 50 nmol/kg) Plasma samples were collected for PK analysis at times 0.17, 1, 3, 6, 24, 30, 48, 72 and 96 hours post dosing in a sparse sampling design with 3 mice per group per timepoint. Plasma samples were analyzed using LC-MSMS and PK parameters were estimated by Non-Compartmental Analysis (NCA).

[4] = Chemical stability of purified peptides (RP-UHPLC main peak purity loss); format: physicochemical
How it was run: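 Peptides at about 1.0 mg/ml in 50 mM phosphate buffer pH 7.5, or pH-adjusted for the pH series, were incubated at 40 °C for 14 and 28 days. Main-peak purity was taken as main-peak area over total area by RP-UHPLC (UV 215 nm, C8, 50 °C). Purity loss was calculated versus T0.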

[5] = Table 4, library peptides having X^38 = Nle, read-out: hCRHR1 pEC50 (converted)
[6] = Table 5, purified peptides, read-out: hCRHR1 EC50
[7] = T0, time zero after sample preparation
[8] = T5, five days incubation at 40°C with continuous shaking
[9] = male, NMRI/RjHan, in vivo, iv, Mouse, 15 nmol/kg i.v.
[10] = male, NMRI/RjHan, in vivo, sc, Mouse, 15 nmol/kg s.c.

CCCC[C@H](NC(=O)[C@@H](NC(=O)[C@H](CCC(=O)O)NC(=O)C(C)(C)NC(=O)[C@H](CC(N)=O)NC(=O)[C@@H](NC(=O)[C@H](CCCCNC(=O)COCCOCCNC(=O)COCCOCCNC(=O)CC[C@H](NC(=O)CC[C@H](NC(=O)CCCCCCCCCCCCCCCCCCC(=O)O)C(=O)O)C(=O)O)NC(=O)[C@H](C)NC(=O)[C@H](CCC(N)=O)NC(=O)[C@H](CCC(=O)O)NC(=O)[C@H](CCCNC(=N)N)NC(=O)[C@H](C)NC(=O)[C@H](C)NC(=O)[C@H](CCCNC(=N)N)NC(=O)[C@H](C)NC(=O)[C@H](CCCNC(=N)N)NC(=O)[C@H](C)NC(=O)[C@H](CCC(N)=O)NC(=O)[C@H](CO)NC(=O)[C@H](CC(C)C)NC(=O)[C@H](CC(C)C)NC(=O)[C@@H](NC(=O)[C@H](CCC(N)=O)NC(=O)[C@H](CC(C)C)NC(=O)[C@H](CC(C)C)NC(=O)CNC(=O)[C@@H](NC(=O)[C@@H]1CCCN1C(=O)[C@@H](NC(=O)[C@H](CC(=O)O)NC(=O)[C@H](CC(C)C)NC(=O)[C@H](CO)NC(=O)[C@H](CC(C)C)NC(=O)[C@@H](NC(=O)[C@@H](NC)[C@@H](C)CC)C(C)C)C(C)C)[C@@H](C)CC)[C@@H](C)CC)[C@@H](C)O)[C@@H](C)CC)C(=O)N[C@@H](C)C(=O)N[C@@H](CCC(=O)O)C(=O)N[C@H](C(N)=O)C(C)C [SEQ ID NO: 215] (H-[NMeI]VLSLDVPIGLLQILLSQARARAAREQAK([AEEA-AEEA-γGlu-γGlu-C20 diacid])TN[Aib]EI[Nle]AEV-NH2)
EC50 [1, 5]: 3160 nM | EC50 [1, 6]: > 5000 nM | EC50 ([1]; stable cell system, Table 10, read-out: Stable EC50 (nM) hCRHR 1): > 5000 nM | PD (%) [2, 7]: 10.8% | Rh (nm) [2, 7]: 5.6 nm | PD (%) [2, 8]: 15.1% | Rh (nm) [2, 8]: 5.9 nm | MRT ([3]; Mouse): 17.4 | T½ ([3]; Mouse): 12.6 | bioavailability ([3]; male, NMRI, mouse, in vivo, sc): 56% | clearance [3, 9]: 4 mL/h/kg | half-life [3, 9]: 12.6 h | Cmax [3, 10]: 58 nM | Tmax [3, 10]: 6 h | half-life [3, 10]: 14.1 h | Purity loss (RP-UPLC analysis) T14-T0 (%) ([4]; pH 7.0, 40°C, 14 days): 0.2% | Purity loss (RP-UPLC analysis) T28-T0 (%) ([4]; pH 7.0, 40°C, 28 days): -0.3% | Purity loss (RP-UPLC analysis) T14-T0 (%) ([4]; pH 7.5, 40°C, 14 days): 0.1% | Purity loss (RP-UPLC analysis) T28-T0 (%) ([4]; pH 7.5, 40°C, 28 days): -0.1% | Chemical stability at pH 7.5 after 14 days at 40°C (% degradation) ([4]; pH 7.5, 14 days, 40°C): -0.92% | Chemical stability at pH 7.5 after 28 days at 40°C (% degradation) ([4]; pH 7.5, 28 days, 40°C): 0.31% | Purity loss (RP-UPLC analysis) T14-T0 (%) ([4]; pH 8.0, 40°C, 14 days): -0.4% | Purity loss (RP-UPLC analysis) T28-T0 (%) ([4]; pH 8.0, 40°C, 28 days): -0.7%

CC[C@H](C)[C@H](N)C(=O)N[C@H](C(=O)N[C@@H](CC(C)C)C(=O)N[C@@H](CO)C(=O)N[C@@H](CC(C)C)C(=O)N[C@@H](CC(=O)O)C(=O)N[C@H](C(=O)N1CCC[C@H]1C(=O)N[C@H](C(=O)NCC(=O)N[C@@H](CC(C)C)C(=O)N[C@@H](CC(C)C)C(=O)N[C@@H](CCC(N)=O)C(=O)N[C@H](C(=O)N[C@@H](CC(C)C)C(=O)N[C@@H](CC(C)C)C(=O)N[C@@H](CCC(=O)O)C(=O)N[C@@H](CCC(N)=O)C(=O)N[C@@H](C)C(=O)N[C@@H](CCCNC(=N)N)C(=O)N[C@@H](C)C(=O)N[C@@H](CCCNC(=N)N)C(=O)N[C@@H](C)C(=O)N[C@@H](C)C(=O)N[C@@H](CCCNC(=N)N)C(=O)N[C@@H](CCC(=O)O)C(=O)N[C@@H](CCC(N)=O)C(=O)N[C@@H](C)C(=O)N[C@H](C(=O)N[C@@H](CCCCNC(=O)COCCOCCNC(=O)COCCOCCNC(=O)CC[C@H](NC(=O)CC[C@H](NC(=O)CCCCCCCCCCCCCCCCCCC(=O)O)C(=O)O)C(=O)O)C(=O)N[C@@H](CC(N)=O)C(=O)N[C@@H](C)C(=O)N[C@@H](CCC(=O)O)C(=O)N[C@H](C(=O)N[C@@H](CC(C)C)C(=O)N[C@@H](C)C(=O)N[C@@H](CCC(=O)O)C(=O)N[C@H](C(N)=O)C(C)C)[C@@H](C)CC)[C@@H](C)O)[C@@H](C)CC)[C@@H](C)CC)C(C)C)C(C)C [SEQ ID NO: 4] (H-IVLSLDVPIGLLQILLEQARARAAREQATK([AEEA-AEEA-γGlu-γGlu-C20 diacid])NAEILAEV-NH2)
EC50 ([1]; purified peptides, CHO-K1 cells stably expressing hCRHR1, cAMP HTRF, read-out: hCRHR1 EC50): > 5000 nM | MRT ([3]; Mouse): 18.2 | T½ ([3]; Mouse): 14.8 | Chemical stability at pH 7.5 after 14 days at 40°C (% degradation) ([4]; pH 7.5, 40°C, 14 days, first value of cell): -1.3% | Chemical stability at pH 7.5 after 28 days at 40°C (% degradation) ([4]; pH 7.5, 40°C, 28 days, second value of cell): -3.9%

CCCC[C@H](NC(=O)[C@@H](NC(=O)[C@H](CCC(=O)O)NC(=O)[C@H](C)NC(=O)[C@H](CC(N)=O)NC(=O)C(C)(C)NC(=O)[C@H](CCCCNC(=O)COCCOCCNC(=O)COCCOCCNC(=O)CC[C@H](NC(=O)CC[C@H](NC(=O)CCCCCCCCCCCCCCCCCCC(=O)O)C(=O)O)C(=O)O)NC(=O)[C@H](C)NC(=O)[C@H](CCC(N)=O)NC(=O)[C@H](CCC(=O)O)NC(=O)[C@H](CCCNC(=N)N)NC(=O)[C@H](C)NC(=O)[C@H](C)NC(=O)[C@H](CCCNC(=N)N)NC(=O)[C@H](C)NC(=O)[C@H](CCCNC(=N)N)NC(=O)[C@H](C)NC(=O)[C@H](CCC(N)=O)NC(=O)[C@H](CO)NC(=O)[C@H](CC(C)C)NC(=O)[C@H](CC(C)C)NC(=O)[C@@H](NC(=O)[C@H](CCC(N)=O)NC(=O)[C@H](CC(C)C)NC(=O)[C@H](CC(C)C)NC(=O)CNC(=O)[C@@H](NC(=O)[C@@H]1CCCN1C(=O)[C@@H](NC(=O)[C@H](CC(=O)O)NC(=O)[C@H](CC(C)C)NC(=O)[C@H](CO)NC(=O)[C@H](CC(C)C)NC(=O)[C@@H](NC(=O)[C@@H](NC)[C@@H](C)CC)C(C)C)C(C)C)[C@@H](C)CC)[C@@H](C)CC)[C@@H](C)CC)C(=O)N[C@@H](C)C(=O)N[C@@H](CCC(=O)O)C(=O)N[C@H](C(N)=O)C(C)C [compound 132] (H-[NMeI]VLSLDVPIGLLQILLSQARARAAREQAK([AEEA-AEEA-γGlu-γGlu-C20 diacid])[Aib]NAEI[Nle]AEV-NH2)
EC50 [1, 5]: 794 nM | EC50 [1, 6]: > 5000 nM | MRT ([3]; Mouse): 16 | T½ ([3]; Mouse): 11.2 | Chemical stability at pH 7.5 after 14 days at 40°C (% degradation) ([4]; pH 7.5, 14 days, 40°C): -1.6% | Chemical stability at pH 7.5 after 28 days at 40°C (% degradation) ([4]; pH 7.5, 28 days, 40°C): -1.3%
